This passage reports logP results from patent US20250287987A1, “AEROSOLISABLE MATERIAL” (NICOVENTURES TRADING LIMITED, priority 2022, published 2025).

Broadly, the logP is the decadic logarithm of the partition coefficient of the neutral form, usually between octanol and water. Read a low logP as lower lipophilicity.

This series is described as follows: LogP (1-octanol/water partition coefficient) of terpenes, slow-stirring method. The text has this: LogP is the partition coefficient of a molecule between aqueous and lipophilic phases, usually considered as octanol and water. As referred to herein, the LogP of specific terpenes can be determined using the “slow-stirring” method, wherein water, 1-octanol and the test substance are equilibrated in a thermostated stirred reactor. Exchange between the phases is accelerated by stirring. The stirring introduces limited turbulence which enhances the exchange between 1-octanol and water without microdroplets being formed. A suitable “slow-stirring” method is: Test No. 123: Partition Coefficient (1-Octanol/Water): Slow-Stirring Method, 30 Jun. 2022, OECD Guidelines for the Testing of Chemicals.

SMILES strings stand for the structures.

Compound `C=CC(C)(CCC=C(C)C)OC(C)=O` (stereo not shown) [Linalyl acetate] had a logP of 3.92.

Take `CC(C)=CCCC(C)CCO` (stereo not drawn) [Beta-citronellol]: the logP (LogP) came out at 3.56.

Compound `C=C(C)[C@H]1CC=C(C)CC1` [Limonene] gave a log partition coefficient (logP) (octanol/water) of 4.4.

In the case of `C=C1CC/C=C(\C)CC[C@@H]2[C@@H]1CC2(C)C` [beta-caryophyllene], the lipophilicity (logP) (LogP) is above 6.4.
